Paper PMC8398451, “Molecular Engineering of Curcumin, an Active Constituent of Curcuma longa L. (Turmeric) of the Family Zingiberaceae with Improved Antiproliferative Activity” (Plants, 2021)

Tests used:
Format in all cases: cell-based, Human
MOLT-4 = test: NCI antiproliferative SRB assay, Leukemia panel
SR = test: NCI antiproliferative SRB assay, Leukemia panel
NCI-H322M = test: NCI antiproliferative SRB assay, Non-Small Cell Lung Cancer panel
HT29 = test: NCI antiproliferative SRB assay, Colon Cancer panel
SF-268 = test: NCI antiproliferative SRB assay, CNS Cancer panel
SK-MEL-2 = test: NCI antiproliferative SRB assay, Melanoma panel
SK-MEL-5 = test: NCI antiproliferative SRB assay, Melanoma panel
UACC-62 = test: NCI antiproliferative SRB assay, Melanoma panel
CAKI-1 = test: NCI antiproliferative SRB assay, Renal Cancer panel
MCF7 = test: NCI antiproliferative SRB assay, Breast Cancer panel
HS 578T = test: as above
BT-549 = test: as above
T-47D = test: as above
MDA-MB-468 = test: as above
Procedure: The antiproliferative activity of tested compounds was done against five dozen (60) cancer cell lines derived from nine different panels. All of the compounds were evaluated for antiproliferative activity in a single dose at 10 µM. Growth percent (GP) and percent growth inhibition (% GI) were used to calculate antiproliferative activity. […] The antiproliferative results of five-dose assay were calculated as three dose related parameters like, 50% growth inhibition (GI50), 50% lethal concentration (LC50), and total growth inhibition TGI [43, 44, 45, 46, 47].
Human tumor cell lines were grown in RPMI 1640 medium containing 5% fetal bovine serum and 2 mM L-glutamine. For a typical screening experiment, cells were inoculated into 96-well microtiter plates in 100 µL at plating densities ranging from 5000 to 40,000 cells/well, depending on the doubling time of individual cell lines. Two plates of each cell line were fixed in situ with trichloroacetic acid (TCA) after 24 h to represent a cell population measurement for each cell line at the time of drug addition (Ti). The experimental drugs were frozen after being solubilized in dimethyl sulfoxide at 400-fold the desired final maximum test concentration. An aliquot of frozen concentrate was thawed and diluted to twice the desired final maximum test concentration with medium containing 50 µg/mL gentamicin at the time of drug addition. Additional four, 10-fold, or ½ log serial dilutions serial dilutions were performed to provide a total of five drug concentrations plus the control. Aliquots of 100 µL of these different drug dilutions were added to the appropriate microtiter wells already containing 100 µL of medium, resulting in the required final drug concentrations. Following drug addition, the plates are incubated for an additional 48 h at 37 °C, 5% CO2, 95% air, and 100% relative humidity. For adherent cells, the assay is terminated by the addition of cold TCA. Cells are fixed in situ by the gentle addition of 50 µL of cold 50% (w/v) TCA (final concentration, 10% TCA) and incubated for 60 min at 4 °C. The supernatant is discarded, and the plates are washed five times with tap water and air dried. Sulforhodamine B (SRB) solution (100 µL) at 0.4% (w/v) in 1% acetic acid was added to each well, and plates were incubated for 10 min at room temperature. After staining, unbound dye was removed by washing five times with 1% acetic acid and the plates were air dried. Bound stain was subsequently solubilized with 10 mM trizma base, and the absorbance was read on an automated plate reader at a wavelength of 515 nm. For suspension cells, the methodology was the same except that the assay was terminated by fixing settled cells at the bottom of the wells by gently adding 50 µL of 80% TCA (final concentration, 16% TCA). […]
Antiproliferative activity
The anticancer screening was carried ou t as per the NCI US protocol. Using the seven absorbance measurements (time zero, (Ti), control growth, (C), and test growth in the presence of drug at the five concentration levels (Tf)), the percentage growth was calculated at each of the drug concentrations level as [( Tf−Ti × 100 for concentrations for which Tf ≥ Ti, and Tf−Ti × 100 for […]
concentrations for which Tf < Ti.
Three-dose response parameters (GI50, TGI, and LC50) were calculated for each of the experimental agents. Growth inhibition of 50% (GI50) was calculated from 100 × Tf−Ti = 50, , which was […]
the drug concentration resulting in a 50% reduction in the net protein increase (as measured by sulforhodamine B, SRB staining) in control cells during the drug incubation. The total growth inhibition (TGI) was calculated from Tf = Ti, which was the drug concentration resulting in total growth inhibition and signified the cytostatic effect. The LC50 was calculated from 100 × Tf−Ti = −50, , indicating a net loss […]
of cells following treatment which indicated the concentration of drug resulting in a 50% reduction in the […]

[1] = tested on: Renal Cancer cell line panel; test: NCI antiproliferative assay, panel summary
[2] = Homo sapiens, 5-dose 0.01-100 µM
[3] = Homo sapiens, 5-dose 0.01-100 µM, read-out: LC50 (the source's name)
[4] = Homo sapiens, T47D, 5-dose 0.01-100 µM

## COc1cc(/C=C/c2cc(/C=C/c3ccc(O)c(OC)c3)n(C(=O)Nc3ccc(C(F)(F)F)cc3)n2)ccc1O [3c]
MOLT-4; 5-dose 0.01-100 µM
  TGI: 20.0 µM
MOLT-4; [2]
  GI50: 2.73 µM
MOLT-4; [3]
  CC50: > 100 µM
MOLT-4; one dose 10 µM
  %GI: 88.91%
  GP (growth percent): 11.09
SR; 5-dose 0.01-100 µM
  TGI: >100 µM
SR; [2]
  GI50: 1.48 µM
SR; [3]
  CC50: > 100 µM
SR; one dose 10 µM
  %GI: 86.79%
  GP (growth percent): 13.21
NCI-H322M; 5-dose 0.01-100 µM
  TGI: 12.9 µM
NCI-H322M; [2]
  GI50: 3.25 µM
NCI-H322M; [3]
  CC50: 49.6 µM
NCI-H322M; one dose 10 µM
  %GI: 17.30%
  GP (growth percent): 82.70
HT29; 5-dose 0.01-100 µM
  TGI: 4.13 µM
HT29; Homo sapiens, HT-29, 5-dose 0.01-100 µM
  GI50: 2.02 µM
HT29; Homo sapiens, HT-29, 5-dose 0.01-100 µM, read-out: LC50 (the source's name)
  CC50: 8.44 µM
HT29; one dose 10 µM
  %GI: 96.50%
  GP (growth percent): 3.50
SF-268; 5-dose 0.01-100 µM
  TGI: 15.4 µM
SF-268; [2]
  GI50: 2.8 µM
SF-268; [3]
  CC50: > 100 µM
SF-268; one dose 10 µM
  %GI: 62.88%
  GP (growth percent): 37.12
SK-MEL-2; 5-dose 0.01-100 µM
  TGI: 17.3 µM
SK-MEL-2; [2]
  GI50: 3.15 µM
SK-MEL-2; [3]
  CC50: > 100 µM
SK-MEL-2; one dose 10 µM
  %GI: 15.53%
  GP (growth percent): 84.47
SK-MEL-5; 5-dose 0.01-100 µM
  TGI: 6.89 µM
SK-MEL-5; [2]
  GI50: 2.27 µM
SK-MEL-5; [3]
  CC50: 28 µM
SK-MEL-5; one dose 10 µM
  %GI: 64.60%
  GP (growth percent): 35.40
UACC-62; 5-dose 0.01-100 µM
  TGI: 4.76 µM
UACC-62; [2]
  GI50: 2.02 µM
UACC-62; [3]
  CC50: 16.7 µM
UACC-62; one dose 10 µM
  %GI: 68.90%
  GP (growth percent): 31.10
CAKI-1; 5-dose 0.01-100 µM
  TGI: 12.7 µM
CAKI-1; [2]
  GI50: 3.02 µM
CAKI-1; [3]
  CC50: 44.1 µM
CAKI-1; one dose 10 µM
  %GI: 45.01%
  GP (growth percent): 54.99
MCF7; 5-dose 0.01-100 µM
  TGI: 10.7 µM
MCF7; [2]
  GI50: 1.97 µM
MCF7; [3]
  CC50: 72 µM
MCF7; one dose 10 µM
  %GI: 77.08%
  GP (growth percent): 22.92
HS 578T; 5-dose 0.01-100 µM
  TGI: 60.6 µM
HS 578T; [2]
  GI50: 5.1 µM
HS 578T; [3]
  CC50: > 100 µM
HS 578T; one dose 10 µM
  %GI: 48.11%
  GP (growth percent): 51.89
BT-549; 5-dose 0.01-100 µM
  TGI: 3.67 µM
BT-549; [2]
  GI50: 1.96 µM
BT-549; [3]
  CC50: 6.86 µM
BT-549; one dose 10 µM
  %GI: 81.03%
  GP (growth percent): 18.97
T-47D; 5-dose 0.01-100 µM
  TGI: 39.0 µM
T-47D; [4]
  GI50: 2.81 µM
  LC50 (lethal concentration, 50% cell kill): > 100 µM
T-47D; one dose 10 µM
  %GI: 52.60%
  GP (growth percent): 47.40
MDA-MB-468; Homo sapiens, MDA-MB-468, read-out: LC50
  LC50 (50% lethal concentration): > 100 µM
MDA-MB-468; Homo sapiens, MDA-MB-468, 5-dose 0.01-100 µM
  GI50: 2.3 µM
MDA-MB-468; MDA-MB-468, 5-dose 0.01-100 µM
  TGI: 6.25 µM
MDA-MB-468; MDA-MB-468, one dose 10 µM
  %GI: 56.21%
  GP (growth percent): 43.79
[1]; Homo sapiens, read-out: Sub Panel MID b (mean GI50 of panel)
  GI50: 3.06 µM
[1]; Renal Cancer panel, 10 µM
  Mean % GI: 46.37%
[1]; Renal Cancer panel, 5-dose assay
  Selectivity Ratio (MID a:MID b): 0.93
